# In PubChem BioAssay AID2060882 (Molecular Pharmacology Branch, DTP, NCI, 2025):
# Tested on: 898857-211-R-J1-PDC complex spheroids, growth % test/control
# Assay: Anticancer human tumor 898857-211-R-J1-PDC patient-derived melanoma cell line growth inhibition [RAS]
# Conditions: for IC50: curve of first compound; for viability, T/C: stronger effect = lower value
# From the text: RAS pathway inhibitors in Combinations in Complex Spheroids
# A high-throughput screen of multi-cell type tumor spheroids was designed to identify active combinations of RAS pathway inhibitors and targeted small molecules. Complex spheroids include a stromal component modeled by human endothelial cells (HUVEC) and fibroblasts modeled by human mesenchymal stem cells (MSCs). The concentration ranges selected for each drug and investigational agent were based upon clinically achievable concentrations if the clinical Cmax of the agent was known.
# Compounds. The drugs and investigational agents: abemaciclib (NSC768073), cobimetinib (NSC768068), divarasib (GDC6063, NSC841802), docetaxel (NSC628503), GDC-1971 (RLY-1971, NSC841576), gemcitabine (NSC613327), inavolisib (NSC800729), ipatasertib (NSC767898), KB-0742 (NSC834161), MRTX-1133 (NSC836407), osimertinib (NSC779217), RMC-4630 (NSC839698), RMC-6236 (NSC851965), RMC-6291 (NSC852671), Ro-3306 (NSC812927), sapanisertib (NSC764658), SN-38 (NSC673596), staurosporine (NSC755774), SY5609 (NSC837396), and tovorafenib (DAY101, NSC766906), were obtained from the National Cancer Institute (NCI) Developmental Therapeutics Program Chemical Repository. The FDA-approved anticancer drug set is available from the NCI Developmental Therapeutics Program. […] The stock solutions were prepared in dimethyl sulfoxide (DMSO, Sigma-Aldrich, St. Louis, MO, cat. D2650) at 800-fold the tested concentration and stored at -70 degrees C prior to their use. All drugs and investigational agents were tested over a range starting from a high concentration at or near the clinical Cmax and decreasing in half-log increments. If the clinical Cmax for an agent had not been determined, the highest concentration tested was 10 microM.
# Cell Culture. All cells were maintained in an incubator at 37 degrees C and 5% CO2 with 95% humidity. The PDC lines were cultured according to standard operating procedures established by the NCI PDMR. All PDCs were thawed and cultured in Matrigel-coated flasks prepared with a working solution of 1X Ham's F-12 nutrient mix, without supplementation (Invitrogen, Waltham, MA, cat. 11765054), 100 U/mL penicillin-streptomycin (Invitrogen, cat. 15140122), and 2.5% Matrigel (Corning Inc., Corning, NY, cat. 354248) for the first three passages. The 362531-283-R-J2-PDC and 782815-120-R-J1-PDC lines were cultured in 6C/Colon 1B media, which includes advanced DMEM/F-12 (Thermo Fisher Scientific, cat. 12634028), 10 mM HEPES (Thermo Fisher Scientific, cat. 15630080), 1X GlutaMAX supplement (Thermo Fisher Scientific, cat. 35050061), 0.1 mg/mL primocin (InvivoGen, San Diego, CA, cat. ant-pm-2), 10% defined fetal bovine serum, heat inactivated (HyClone Laboratories Inc., Logan, UT, cat. SH30070.03HI), 50% L-WRN conditioned media (ATCC, cat. CRL-3276), 1.25 mM N-Acetyl-L-cysteine (Sigma-Aldrich, cat. A9165), 10 mM nicotinamide (Sigma-Aldrich, cat. N0636), 1X B-27 supplement (Thermo Fisher Scientific, cat. 17504044), 1X N-2 supplement (Thermo Fisher Scientific, cat. 17502048), 50 ng/mL human EGF (Thermo Fisher Scientific, cat. PHG0311), and 10 microM Y-27632 dihydrochloride (Tocris Bioscience, cat. 1254). The K12877-001-R-J1-PDC line was cultured in 6I media, which includes all 6C/Colon 1B media plus 10 ng/mL human FGF-10 (PeproTech, cat. 100-26), 1 ng/mL human FGF-2 (PeproTech, cat. 100-18B), 1 µM prostaglandin E2 (Tocris Bioscience, cat. 2296), […] hydrocortisone (Sigma-Aldrich, cat. H4001), and […] bovine insulin (Sigma-Aldrich, cat. I6634). The K86415-001-R-J1-PDC line was cultured in 6D media, which includes all 6C/Colon 1B media components minus the L-WRN conditioned media. The 485176-168-R4-J1-PDC was cultured in PANC media, which includes all 6C/Colon 1B media plus 100 ng/mL human FGF-10 (PeproTech, cat. 100-26), 500 nM SB-431542 (Selleckchem, cat. S1067), and 10 nM gastrin (Tocris Bioscience, cat. 3006). […]
# 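Note: spheroids exposed to compound for seven days before readout.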
# 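Throughout, for viability, T/C: 100% = DMSO vehicle control wells.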
compound,measurement,setting,value
C=CC(=O)Nc1cc(Nc2nccc(-c3cn(C)c4ccccc34)n2)c(OC)cc1N(C)CCN(C)C + C#Cc1c(F)ccc2cc(O)cc(-c3ncc4c(N5CC6CCC(C5)N6)nc(OCC56CCCN5CC(F)C6)nc4c3F)c12,IC50,second compound 0.0316 µM,> 1000 nM
same,IC50,second compound 0.1 µM,> 1000 nM
same,IC50,second compound 0.316 µM,> 1000 nM
same,IC50,second compound 1 µM,> 1000 nM
same,IC50,second compound 3.16 µM,778 nM
same,IC50,second compound 10 µM,24 nM
same,"viability, T/C","second compound 0.0316 µM, first compound 0.00316 µM",103%
same,"viability, T/C","second compound 0.0316 µM, first compound 0.01 µM",92.3%
same,"viability, T/C","second compound 0.0316 µM, first compound 0.0316 µM",103%
same,"viability, T/C","second compound 0.0316 µM, first compound 0.1 µM",100%
same,"viability, T/C","second compound 0.0316 µM, first compound 0.316 µM",85.4%
same,"viability, T/C","second compound 0.0316 µM, first compound 1 µM",65.7%
same,"viability, T/C","second compound 0.1 µM, first compound 0.00316 µM",108%
same,"viability, T/C","second compound 0.1 µM, first compound 0.01 µM",105%
same,"viability, T/C","second compound 0.1 µM, first compound 0.0316 µM",107%
same,"viability, T/C","second compound 0.1 µM, first compound 0.1 µM",98.6%
same,"viability, T/C","second compound 0.1 µM, first compound 0.316 µM",94.7%
same,"viability, T/C","second compound 0.1 µM, first compound 1 µM",62.1%
same,"viability, T/C","second compound 0.316 µM, first compound 0.00316 µM",113%
same,"viability, T/C","second compound 0.316 µM, first compound 0.01 µM",101%
same,"viability, T/C","second compound 0.316 µM, first compound 0.0316 µM",111%
same,"viability, T/C","second compound 0.316 µM, first compound 0.1 µM",96.2%
same,"viability, T/C","second compound 0.316 µM, first compound 0.316 µM",85.8%
same,"viability, T/C","second compound 0.316 µM, first compound 1 µM",49.9%
same,"viability, T/C","second compound 1 µM, first compound 0.00316 µM",109%
same,"viability, T/C","second compound 1 µM, first compound 0.01 µM",95.8%
same,"viability, T/C","second compound 1 µM, first compound 0.0316 µM",109%
same,"viability, T/C","second compound 1 µM, first compound 0.1 µM",97.6%
same,"viability, T/C","second compound 1 µM, first compound 0.316 µM",93.6%
same,"viability, T/C","second compound 1 µM, first compound 1 µM",54.5%
same,"viability, T/C","second compound 3.16 µM, first compound 0.00316 µM",109%
same,"viability, T/C","second compound 3.16 µM, first compound 0.01 µM",105%
same,"viability, T/C","second compound 3.16 µM, first compound 0.0316 µM",102%
same,"viability, T/C","second compound 3.16 µM, first compound 0.1 µM",105%
same,"viability, T/C","second compound 3.16 µM, first compound 0.316 µM",87.6%
same,"viability, T/C","second compound 3.16 µM, first compound 1 µM",39%
same,"viability, T/C","second compound 10 µM, first compound 0.00316 µM",65.7%
same,"viability, T/C","second compound 10 µM, first compound 0.01 µM",48.1%
same,"viability, T/C","second compound 10 µM, first compound 0.0316 µM",45.1%
same,"viability, T/C","second compound 10 µM, first compound 0.1 µM",45.5%
same,"viability, T/C","second compound 10 µM, first compound 0.316 µM",19.9%
same,"viability, T/C","second compound 10 µM, first compound 1 µM",0.87%
